# Results from the supplement of paper PMC6411743.
# Compound: Nc1ncnc2c1ncn2[C@@H]1O[C@H](COP(=O)(O)OP(=O)(O)OP(=O)(O)O)[C@@H](O)[C@H]1O [adenosine triphosphate]
# Test: pEC50 of ATP-induced change in protein thermal stability (2D-TPP)
# Procedure, shortened: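 In three independent experiments, Jurkat crude lysate received five concentrations including vehicle for 10 min at room temperature before a 3 min heating step at 12 temperatures (42–63.9 °C). NP40 and benzonase were then added for 60 min at 4 °C, and soluble protein after ultracentrifugation was read out by TMT LC-MS/MS as median-normalised fold changes against vehicle at each temperature. Dose-response fits per replicate over adjacent temperature pairs yielded pEC50, with hits called by permutation-based false discovery rate control.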
# 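Further: lysate dosed with Na-ATP at 0 0.005 0.05 0.5 and 2 mM.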
# Sequence of UniProt P09661 (P09661 whole entry): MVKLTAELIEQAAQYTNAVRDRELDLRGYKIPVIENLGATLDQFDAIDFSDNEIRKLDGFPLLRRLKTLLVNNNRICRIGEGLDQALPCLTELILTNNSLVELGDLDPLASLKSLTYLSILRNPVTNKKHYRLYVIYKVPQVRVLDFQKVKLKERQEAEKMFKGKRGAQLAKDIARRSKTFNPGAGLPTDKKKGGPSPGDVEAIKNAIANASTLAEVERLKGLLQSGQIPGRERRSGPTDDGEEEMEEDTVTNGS
# Sequence of UniProt O43681 (O43681 whole entry): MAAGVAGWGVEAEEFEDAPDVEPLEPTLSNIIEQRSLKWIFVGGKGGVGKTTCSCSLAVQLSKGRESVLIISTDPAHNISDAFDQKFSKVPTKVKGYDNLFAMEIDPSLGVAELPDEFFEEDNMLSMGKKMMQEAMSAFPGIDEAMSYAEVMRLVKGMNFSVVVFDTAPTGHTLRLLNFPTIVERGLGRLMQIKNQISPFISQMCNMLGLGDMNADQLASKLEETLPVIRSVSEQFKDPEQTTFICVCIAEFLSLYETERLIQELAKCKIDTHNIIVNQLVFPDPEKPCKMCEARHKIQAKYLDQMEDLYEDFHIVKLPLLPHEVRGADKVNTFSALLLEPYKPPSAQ
# Sequence of UniProt Q9UBP0 (Q9UBP0 whole entry): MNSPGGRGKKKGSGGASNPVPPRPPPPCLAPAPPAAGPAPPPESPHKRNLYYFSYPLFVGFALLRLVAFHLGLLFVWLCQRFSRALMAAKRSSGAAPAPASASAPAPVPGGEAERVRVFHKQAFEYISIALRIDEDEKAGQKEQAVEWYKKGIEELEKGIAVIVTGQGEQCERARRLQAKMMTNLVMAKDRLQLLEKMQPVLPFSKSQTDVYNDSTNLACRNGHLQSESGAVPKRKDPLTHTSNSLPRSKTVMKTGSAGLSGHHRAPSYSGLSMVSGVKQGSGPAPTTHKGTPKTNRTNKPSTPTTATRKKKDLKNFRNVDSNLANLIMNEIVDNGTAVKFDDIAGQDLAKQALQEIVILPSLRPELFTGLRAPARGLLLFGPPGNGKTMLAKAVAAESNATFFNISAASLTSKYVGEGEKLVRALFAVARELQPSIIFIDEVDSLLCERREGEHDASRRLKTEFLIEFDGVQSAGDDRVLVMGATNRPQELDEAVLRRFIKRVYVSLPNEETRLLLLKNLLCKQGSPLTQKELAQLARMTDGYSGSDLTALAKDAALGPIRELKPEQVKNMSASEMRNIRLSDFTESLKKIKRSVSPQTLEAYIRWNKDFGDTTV
# Sequence of UniProt P12004 (P12004 whole entry): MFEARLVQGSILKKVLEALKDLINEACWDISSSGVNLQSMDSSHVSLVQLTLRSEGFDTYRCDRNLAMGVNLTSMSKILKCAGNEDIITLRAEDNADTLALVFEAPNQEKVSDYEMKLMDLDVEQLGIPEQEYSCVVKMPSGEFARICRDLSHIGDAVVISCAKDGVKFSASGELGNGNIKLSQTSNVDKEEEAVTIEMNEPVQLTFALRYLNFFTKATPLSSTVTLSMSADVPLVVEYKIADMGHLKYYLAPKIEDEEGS
# Sequence of UniProt Q9Y5N6 (Q9Y5N6 whole entry): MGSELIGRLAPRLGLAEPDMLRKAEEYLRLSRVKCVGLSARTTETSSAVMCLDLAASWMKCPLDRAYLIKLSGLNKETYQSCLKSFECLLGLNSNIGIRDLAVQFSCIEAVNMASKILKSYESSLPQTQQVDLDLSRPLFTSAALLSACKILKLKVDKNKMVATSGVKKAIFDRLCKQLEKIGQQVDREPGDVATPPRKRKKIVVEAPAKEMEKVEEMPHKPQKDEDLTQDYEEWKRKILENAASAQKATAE
# Sequence of UniProt Q8WUM0 (Q8WUM0 whole entry): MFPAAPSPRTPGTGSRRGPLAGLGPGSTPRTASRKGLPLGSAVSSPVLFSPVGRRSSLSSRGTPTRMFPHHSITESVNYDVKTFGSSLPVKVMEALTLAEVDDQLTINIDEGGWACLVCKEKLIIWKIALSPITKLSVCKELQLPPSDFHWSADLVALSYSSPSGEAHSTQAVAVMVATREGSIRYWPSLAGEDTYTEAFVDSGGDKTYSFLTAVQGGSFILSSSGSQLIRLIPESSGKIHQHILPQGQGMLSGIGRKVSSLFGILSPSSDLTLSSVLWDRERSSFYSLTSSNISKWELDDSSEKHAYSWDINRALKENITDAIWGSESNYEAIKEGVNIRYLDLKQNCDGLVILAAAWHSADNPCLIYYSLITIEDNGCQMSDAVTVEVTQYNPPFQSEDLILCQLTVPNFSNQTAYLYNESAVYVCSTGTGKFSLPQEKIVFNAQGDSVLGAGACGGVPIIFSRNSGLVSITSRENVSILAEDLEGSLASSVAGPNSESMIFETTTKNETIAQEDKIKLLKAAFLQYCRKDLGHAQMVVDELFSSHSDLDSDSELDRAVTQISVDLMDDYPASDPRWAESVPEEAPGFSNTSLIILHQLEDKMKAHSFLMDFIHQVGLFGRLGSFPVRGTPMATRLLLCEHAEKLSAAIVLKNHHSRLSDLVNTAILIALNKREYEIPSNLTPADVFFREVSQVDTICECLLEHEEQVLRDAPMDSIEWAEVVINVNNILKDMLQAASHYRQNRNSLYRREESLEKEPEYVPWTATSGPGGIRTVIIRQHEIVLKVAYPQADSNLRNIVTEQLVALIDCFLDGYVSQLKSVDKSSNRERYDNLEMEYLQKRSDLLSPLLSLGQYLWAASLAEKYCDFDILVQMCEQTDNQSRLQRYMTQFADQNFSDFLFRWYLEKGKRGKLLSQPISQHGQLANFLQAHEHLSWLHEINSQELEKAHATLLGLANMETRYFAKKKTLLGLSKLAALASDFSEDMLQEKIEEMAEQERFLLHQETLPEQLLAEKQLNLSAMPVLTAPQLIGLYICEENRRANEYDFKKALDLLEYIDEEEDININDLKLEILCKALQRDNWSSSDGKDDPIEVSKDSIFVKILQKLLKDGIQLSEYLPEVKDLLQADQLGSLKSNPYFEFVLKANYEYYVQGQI
# Sequence of UniProt P53609 (P53609 whole entry, looked up): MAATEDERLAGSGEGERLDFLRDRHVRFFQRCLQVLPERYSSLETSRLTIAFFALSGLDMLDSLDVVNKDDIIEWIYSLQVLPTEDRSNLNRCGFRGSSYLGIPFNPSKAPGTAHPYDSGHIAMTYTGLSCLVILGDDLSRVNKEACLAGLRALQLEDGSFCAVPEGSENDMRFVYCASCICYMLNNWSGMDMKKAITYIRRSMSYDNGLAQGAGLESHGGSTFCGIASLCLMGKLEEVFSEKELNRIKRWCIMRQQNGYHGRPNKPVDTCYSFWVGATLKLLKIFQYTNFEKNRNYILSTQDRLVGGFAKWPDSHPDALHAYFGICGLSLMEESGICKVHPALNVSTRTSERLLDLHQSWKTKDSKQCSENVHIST
# Sequence of UniProt Q9Y383 (Q9Y383 whole entry): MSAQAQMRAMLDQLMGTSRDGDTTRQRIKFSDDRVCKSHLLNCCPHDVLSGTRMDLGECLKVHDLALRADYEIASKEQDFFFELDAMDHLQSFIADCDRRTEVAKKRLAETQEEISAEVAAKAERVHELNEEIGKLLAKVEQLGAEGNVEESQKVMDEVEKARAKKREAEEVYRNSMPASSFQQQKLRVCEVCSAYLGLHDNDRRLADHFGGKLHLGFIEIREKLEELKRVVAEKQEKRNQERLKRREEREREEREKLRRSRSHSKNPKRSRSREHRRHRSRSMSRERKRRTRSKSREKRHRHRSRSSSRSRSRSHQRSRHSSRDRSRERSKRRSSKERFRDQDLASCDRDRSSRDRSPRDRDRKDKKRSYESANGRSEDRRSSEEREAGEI
# Sequence of UniProt O60231 (O60231 whole entry): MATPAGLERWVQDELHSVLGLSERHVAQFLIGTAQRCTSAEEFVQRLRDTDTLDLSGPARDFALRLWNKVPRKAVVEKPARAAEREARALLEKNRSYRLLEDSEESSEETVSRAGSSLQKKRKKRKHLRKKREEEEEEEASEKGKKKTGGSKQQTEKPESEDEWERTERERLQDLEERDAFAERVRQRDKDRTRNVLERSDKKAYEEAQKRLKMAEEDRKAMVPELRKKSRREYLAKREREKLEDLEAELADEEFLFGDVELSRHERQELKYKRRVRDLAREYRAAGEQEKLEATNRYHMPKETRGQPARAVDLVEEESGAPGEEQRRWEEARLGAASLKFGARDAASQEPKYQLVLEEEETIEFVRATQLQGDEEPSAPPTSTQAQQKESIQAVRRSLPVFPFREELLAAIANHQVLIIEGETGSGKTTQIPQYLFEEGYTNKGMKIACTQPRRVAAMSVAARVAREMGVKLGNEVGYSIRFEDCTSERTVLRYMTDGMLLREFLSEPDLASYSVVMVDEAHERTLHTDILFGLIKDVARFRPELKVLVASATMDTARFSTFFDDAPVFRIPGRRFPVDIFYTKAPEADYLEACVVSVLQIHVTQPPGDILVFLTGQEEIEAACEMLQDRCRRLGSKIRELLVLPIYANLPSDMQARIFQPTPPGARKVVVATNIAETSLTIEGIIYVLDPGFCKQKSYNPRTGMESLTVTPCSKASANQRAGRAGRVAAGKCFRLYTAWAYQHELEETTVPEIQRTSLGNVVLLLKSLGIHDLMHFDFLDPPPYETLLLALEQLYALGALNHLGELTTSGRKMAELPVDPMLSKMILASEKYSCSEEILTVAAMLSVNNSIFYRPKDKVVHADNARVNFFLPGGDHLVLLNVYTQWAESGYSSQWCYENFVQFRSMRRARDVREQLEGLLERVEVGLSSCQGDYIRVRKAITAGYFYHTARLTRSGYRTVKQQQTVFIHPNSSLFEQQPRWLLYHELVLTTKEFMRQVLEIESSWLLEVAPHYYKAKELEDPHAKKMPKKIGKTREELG
# Sequence of UniProt P24539 (P24539 whole entry): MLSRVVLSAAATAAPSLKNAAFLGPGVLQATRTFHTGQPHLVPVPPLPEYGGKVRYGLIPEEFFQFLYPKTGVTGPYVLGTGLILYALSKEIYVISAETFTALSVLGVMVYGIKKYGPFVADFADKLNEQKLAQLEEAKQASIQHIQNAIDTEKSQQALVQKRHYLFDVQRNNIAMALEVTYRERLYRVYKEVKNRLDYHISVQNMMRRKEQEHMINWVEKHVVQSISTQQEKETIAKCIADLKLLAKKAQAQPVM
row,Target,pEC50
1,TSR1 (effect direction: destabilized) (UniProt Q2NL82),3.51
2,VPS35 (effect direction: stabilized) (UniProt Q96QK1),< 2.7
3,UniProt O75521 (effect direction: stabilized),< 2.7
4,PCNA (effect direction: stabilized) (UniProt P12004),< 2.7
5,NUP133 (effect direction: stabilized) (UniProt Q8WUM0),2.84
6,PSMD2 (effect direction: stabilized) (UniProt Q13200),3.96
7,PPM1F (effect direction: stabilized) (UniProt P49593),< 2.7
8,SKIV2L (effect direction: stabilized) (UniProt Q15477),2.92
9,UniProt P61513 (effect direction: destabilized),3.27
10,ASNA1 (effect direction: stabilized) (UniProt O43681),3.31
11,PAF1 (effect direction: stabilized) (UniProt Q8N7H5),3.1
12,UniProt Q63HN8 (effect direction: stabilized),3
13,ATIC (effect direction: stabilized) (UniProt P31939),< 2.7
14,IPO5 (effect direction: stabilized) (UniProt O00410),< 2.7
15,KIF15 (effect direction: stabilized) (UniProt Q9NS87),3.11
16,EIF3A (effect direction: destabilized) (UniProt Q14152),4.48
17,SNRPA1 (effect direction: stabilized) (UniProt P09661),< 2.7
18,RPS2 (effect direction: destabilized) (UniProt P15880),3.82
19,UniProt Q96EK5 (effect direction: stabilized),2.96
20,KATNA1 (effect direction: stabilized) (UniProt O75449),3.42
21,ZCCHC8 (effect direction: stabilized) (UniProt Q6NZY4),< 2.7
22,TTC33 (effect direction: stabilized) (UniProt Q6PID6),2.91
23,GRSF1 (effect direction: stabilized) (UniProt Q12849),2.83
24,LUC7L2 (effect direction: stabilized) (UniProt Q9Y383),3.22

row,Target,pEC50
1,CAMKK2 (effect direction: stabilized) (UniProt Q96RR4),3.63
2,RPL13 (effect direction: destabilized) (UniProt P26373),> 5.3
3,GNE (effect direction: stabilized) (UniProt Q9Y223),3.16
4,RDH14 (effect direction: stabilized) (UniProt Q9HBH5),3.2
5,NPM3 (effect direction: stabilized) (UniProt O75607),< 2.7
6,UniProt P24539 (effect direction: stabilized),4.02
7,PGGT1B (effect direction: stabilized) (UniProt P53609),3.47
8,ABCB10 (effect direction: stabilized) (UniProt Q9NRK6),4.06
9,UniProt P84098 (effect direction: destabilized),2.89
10,CNOT1 (effect direction: stabilized) (UniProt A5YKK6),3.41
11,CDC40 (effect direction: destabilized) (UniProt O60508),3.22
12,DCTN1 (effect direction: stabilized) (UniProt Q14203),< 2.7
13,GYS1 (effect direction: destabilized) (UniProt P13807),5.03
14,ARMC1 (effect direction: stabilized) (UniProt Q9NVT9),< 2.7
15,UniProt Q8WXA9 (effect direction: stabilized),3.39
16,RPS3A (effect direction: destabilized) (UniProt P61247),3.86
17,UniProt Q9NYL2 (effect direction: stabilized),3.65
18,PDCD6 (effect direction: destabilized) (UniProt O75340),< 2.7
19,UniProt P62753 (effect direction: destabilized),3.15
20,UniProt P61353 (effect direction: destabilized),> 5.3
21,DHX16 (effect direction: stabilized) (UniProt O60231),4.14
22,MTHFD2 (effect direction: stabilized) (UniProt P13995),3.15
23,CARS (effect direction: stabilized) (UniProt P49589),3.63
24,IRAK4 (effect direction: stabilized) (UniProt Q9NWZ3),3.3

row,Target,pEC50
1,SPAST (effect direction: stabilized) (UniProt Q9UBP0),3.34
2,AARS (effect direction: stabilized) (UniProt P49588),4.2
3,LAGE3 (effect direction: stabilized) (UniProt Q14657),3.86
4,MACROD1 (effect direction: stabilized) (UniProt Q9BQ69),3.27
5,UniProt P62277 (effect direction: destabilized),3.88
6,ACSL1 (effect direction: stabilized) (UniProt P33121),3.63
7,PDCD2 (effect direction: stabilized) (UniProt Q16342),3.06
8,UniProt Q15418 (effect direction: stabilized),3.77
9,UniProt Q9BQ75 (effect direction: stabilized),< 2.7
10,DIS3L2 (effect direction: stabilized) (UniProt Q8IYB7),3.42
11,ACTL6A (effect direction: stabilized) (UniProt O96019),3.4
12,UniProt O96017 (effect direction: stabilized),3.33
13,MRPL2 (effect direction: destabilized) (UniProt Q5T653),3.46
14,UCHL5 (effect direction: stabilized) (UniProt Q9Y5K5),< 2.7
15,MLKL (effect direction: stabilized) (UniProt Q8NB16),3.44
16,UniProt P61163 (effect direction: stabilized),3.1
17,ASS1 (effect direction: stabilized) (UniProt P00966),3.66
18,SLC12A9 (effect direction: stabilized) (UniProt Q9BXP2),3.94
19,HNRNPH1 (effect direction: stabilized) (UniProt P31943),2.93
20,PURA (effect direction: stabilized) (UniProt Q00577),3.13
21,UniProt Q13131 (effect direction: stabilized),3.29
22,PC (effect direction: stabilized) (UniProt P11498),3.45
23,PPM1G (effect direction: stabilized) (UniProt O15355),< 2.7
24,ORC6 (effect direction: stabilized) (UniProt Q9Y5N6),3.73
